Laboratory results from BigSolDB 2.1.

CO[C@@]1(NC(=O)CSCC#N)C(=O)N2C(C(=O)O)=C(CSc3nnnn3C)CS[C@@H]21
solubility (mole fraction)
Conditions | 278.15 K | 283.15 K | 288.15 K | 293.15 K | 298.15 K | 303.15 K
in ethanol | 0.000215 | 0.000282 | 0.000369 | 0.000467 | 0.000596 | 0.000757
in isopropanol | 4.6e-05 | 6.16e-05 | 8.19e-05 | 0.000107 | 0.000138 | 0.000174
in methanol | 0.00154 | 0.00202 | 0.00264 | 0.00337 | 0.00429 | 0.00545
in water | 1.57e-05 | 2.05e-05 | 2.65e-05 | 3.46e-05 | 4.39e-05 | 5.52e-05
